The experiment concerns the target T1, Jak3 (Homo sapiens, UniProt P52333).
T1 construct: catalytic domain of Jak3 (508aa to 1124aa); made in house; host or cells: Sf9 insect cells (baculovirus, pFastBac 1)
T1 sequence (P52333 508-1124): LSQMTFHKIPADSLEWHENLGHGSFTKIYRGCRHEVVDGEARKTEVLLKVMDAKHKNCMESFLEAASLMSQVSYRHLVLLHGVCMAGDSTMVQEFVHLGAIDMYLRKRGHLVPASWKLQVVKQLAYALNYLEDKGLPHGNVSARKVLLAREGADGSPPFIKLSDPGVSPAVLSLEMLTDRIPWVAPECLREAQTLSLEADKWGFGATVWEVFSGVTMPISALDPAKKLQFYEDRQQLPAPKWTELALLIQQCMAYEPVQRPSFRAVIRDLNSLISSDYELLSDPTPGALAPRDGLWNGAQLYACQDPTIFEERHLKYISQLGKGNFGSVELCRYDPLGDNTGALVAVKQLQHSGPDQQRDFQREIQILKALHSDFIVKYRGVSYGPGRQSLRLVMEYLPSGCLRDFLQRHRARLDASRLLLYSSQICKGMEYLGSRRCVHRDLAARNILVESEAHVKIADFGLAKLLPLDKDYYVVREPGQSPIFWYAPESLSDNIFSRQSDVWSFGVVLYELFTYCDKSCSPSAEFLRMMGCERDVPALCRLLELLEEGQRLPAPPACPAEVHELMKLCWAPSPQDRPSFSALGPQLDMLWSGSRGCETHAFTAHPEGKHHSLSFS
Briefly: Jak3 Kinase Assay (HTRF, GST-Jak3 catalytic domain). In kind it is biochemical. Conditions: 1 μM ATP, 60-min incubation, read-out: Jak 3 (Converted). The protocol:
Human Jak3 cDNA was amplified by PCR. A fragment encoding the catalytic domain of Jak3 (508aa to 1124aa) was ligated with GST at 5′ end. This fused GST-Jak3 DNA fragment was cloned into the EcoRI site of the donor plasmid pFastBac 1 (Life Technologies #10359-016). The transformation, transposition, and transfection of insect cells (Sf9) were performed according to the manufacture's instructions. The cell lysate containing recombinant GST-Jak3 was used in the kinase assay. Anti-GST antibody (10 μg/ml, Sigma #G1417) was coated onto a 384-well plate at 4° C. overnight. Cell lysate containing GST-Jak3 (1:100 dilution) was added to the anti-GST coated plates, and GST-Jak3 was captured by immobilized anti-GST antibody. Testing compounds and substrate mix (50 mM HEPES, pH 7, 0.5 mM Na3VO4, 25 mM MgCl2, 1 mM DTT, 0.005% BSA, 1 μM ATP, and 4.5 μg/ml biotinyl poly-Glu, Ala, Tyr) were added to the plate to initiate the reaction. After a 60-min incubation, the reaction was stopped by 4 mM EDTA, and phosphorylation of biotinyl poly-Glu, Ala, Tyr was detected using 17 μg/ml Cy5-streptavidin (Amersham, #PA92005) and 2.7 μg/ml Europium-conjugated anti-phosphotyrosine antibody (PerkinElmer #AD0069) using homogeneous time-resolved fluorescence (HTRF) technology.
On the technique in general: Time-resolved FRET reads energy transfer from a long-lived donor to a nearby acceptor.

On to `Fc1ccc2ncn(-c3ncc4nc(-c5cccc(Cl)c5)n(C5CCOCC5)c4n3)c2c1` [Example 60], for which the IC50 is 0.1 to 1 µM.

Turning to `O=c1ccc(-c2nc3cnc(-n4cnc5ccc(F)cc54)nc3n2C2CCOCC2)c[nH]1` [Example 61], the IC50 lay in the range of 0.1 to 1 µM.

Turning to `Fc1ccc2ncn(-c3ncc4nc(-c5ccc[nH]5)n(C5CCOCC5)c4n3)c2c1` [Example 62], the IC50 was < 0.1 µM.

Consider `COc1ccc(-c2nc3cnc(-n4cnc5ccc(F)cc54)nc3n2C2CCOCC2)cn1` [Example 63], for which the IC50 is < 0.1 µM.

As to `Fc1ccc2ncn(-c3ncc4nc(-c5ccc(Br)cn5)n(C5CCOCC5)c4n3)c2c1` [Example 64], the IC50 was 0.1 to 1 µM.

For the molecule `Clc1ccc2ncn(-c3ncc4nc(-c5cncnc5)n(C5CCOCC5)c4n3)c2c1` [Example 65], the IC50 is < 0.1 µM.

As for `Fc1ccc2ncn(-c3ncc4nc(-c5ccccn5)n(C5CCOCC5)c4n3)c2c1` [Example 66], the IC50 was in the range of 0.1 to 1 µM.

As to `Fc1cccc(-c2nc3cnc(-n4cnc5ccc(F)cc54)nc3n2C2CCOCC2)c1` [Example 67], the IC50 was 0.1 to 1 µM.

As for `Fc1ccc(-c2nc3cnc(-n4cnc5ccc(F)cc54)nc3n2C2CCOCC2)nc1` [Example 68], the IC50 lay in the range of 0.1 to 1 µM.

Regarding `Fc1ccc2ncn(-c3ncc4nc(-c5ccncn5)n(C5CCOCC5)c4n3)c2c1` [Example 69], the IC50 was < 0.1 µM.

As for `Fc1ccc2ncn(-c3ncc4nc(-c5ccoc5)n(C5CCOCC5)c4n3)c2c1` [Example 70], the IC50 was < 0.1 µM.

With `Oc1cccc(-c2nc3cnc(-n4cnc5ccc(F)cc54)nc3n2C2CCOCC2)c1` [Example 71], the IC50 is < 0.1 µM.

For `Cc1nc2cnc(-n3cnc4ccc(F)cc43)nc2n1C1CCOCC1` [Example 72], the IC50 was < 0.1 µM.

`CO[C@H]1CC[C@H](n2c(C)nc3cnc(-n4cnc5ccc(Cl)cc54)nc32)CC1` [Example 73]: the IC50 was 0.1 to 1 µM.

Turning to `Cc1nc2cnc(-n3cnc4ccc(Cl)cc43)nc2n1C1CCOCC1` [Example 74], the IC50 was < 0.1 µM.

For the molecule `Cc1nc2cnc(-n3cnc4ccc(OC(F)(F)F)cc43)nc2n1[C@@H]1CCOc2c(F)cccc21` [Example 75], the IC50 lay within 0.1 to 1 µM.

In the case of `Cc1nc2cnc(-n3cnc4ccc(OC(F)(F)F)cc43)nc2n1C1CCOCC1` [Example 76, 8-Methyl-9-(tetrahydro-2H-pyran-4-yl)-2-(6-(trifluoromethoxy)-1H-benzo[d]imidazol-1-yl)-9H-purine], the IC50 is < 0.1 µM.

On to `Fc1ccc2ncn(-c3ncc4c(n3)C([C@@H]3CCOc5ccccc53)C(CCl)=N4)c2c1` (stereo partly shown) [Example 77], for which the IC50 was < 0.1 µM.

`Cc1nc2cnc(-n3cnc4ccc(F)cc43)nc2n1[C@@H]1CCOc2ccccc21` [Example 78]: the IC50 was < 0.1 µM.

Consider `CCc1nc2cnc(-n3cnc4ccc(F)cc43)nc2n1[C@@H]1CCOc2ccccc21` [Example 79], for which the IC50 was < 0.1 µM.

Regarding `Cc1nc2cnc(-n3cnc4ccccc43)nc2n1C1COCc2c(F)cccc21` (stereo not shown) [Example 80], the IC50 lay within 0.1 to 1 µM.

As to `Cc1nc2cnc(-n3cnc4ccccc43)nc2n1[C@@H]1CCOc2c(F)cccc21` [Example 81, 2-(1H-benzo[d]imidazol-1-yl)-9-((R)-8-fluorochroman-4-yl)-8-methyl-9H-purine], the IC50 was < 0.1 µM.

Take `Cc1nc2cnc(-n3cnc4ccccc43)nc2n1Cc1ccccc1` [Example 82]: the IC50 was > 1 µM.

With `Cc1nc2cnc(-n3cnc4ccccc43)nc2n1C1CCOCC1` [Example 83], the IC50 was < 0.1 µM.

With `COCCCn1c(C)nc2cnc(-n3cnc4ccccc43)nc21` [Example 84], the IC50 is > 1 µM.

On to `COCCCn1c(-c2ccccc2)nc2cnc(-n3cnc4ccccc43)nc21` [Example 85], for which the IC50 is > 1 µM.

For `Fc1cccc2c1COCC2n1c(-c2ccccc2)nc2cnc(-n3cnc4ccccc43)nc21` (stereo not shown) [Example 86, 2-(1H-benzo[d]imidazol-1-yl)-9-(8-fluoroisochroman-4-yl)-8-phenyl-9H-purine], the IC50 is > 1 µM.

Turning to `Fc1cccc2c1COC[C@H]2n1c(-c2ccccc2)nc2cnc(-n3cnc4ccccc43)nc21` [Example 87], the IC50 lay in the range of 0.1 to 1 µM.

Consider `[O-][n+]1ccc(-c2nc3cnc(-n4cnc5ccc(F)cc54)nc3n2C2CCOCC2)cc1` [Example 88], for which the IC50 was in the range of 0.1 to 1 µM.

Consider `c1ccc(Cn2c(-c3ccccc3)nc3cnc(-n4cnc5ccccc54)nc32)cc1` [Example 89], for which the IC50 is > 1 µM.

`Fc1ccc2ncn(-c3ncc4nc(Cc5ccccc5)n(C5CCOCC5)c4n3)c2c1` [Example 90, 8-Benzyl-2-(6-fluoro-1H-benzo[d]imidazol-1-yl)-9-(tetrahydro-2H-pyran-4-yl)-9H-purine]: the IC50 fell in the range of 0.1 to 1 µM.

On to `c1ccc(-c2nc3cnc(-n4cnc5ccccc54)nc3n2C2CCOCC2)cc1` [Example 91], for which the IC50 lay in the range of 0.1 to 1 µM.

As for `Cc1nc2cnc(-n3cnc4ccc(Cl)cc43)nc2n1[C@H](C)C(=O)NCC(F)(F)F` [Example 92, (2R)-2-(2-(6-chloro-1H-benzo[d]imidazol-1-yl)-8-methyl-9H-purin-9-yl)-N-(2,2,2-trifluoroethyl)propanamide], the IC50 was < 0.1 µM.

Consider `N#Cc1ccc2ncn(-c3ncc4nc(NCC5CCCO5)n(C5CCOCC5)c4n3)c2c1` (stereo not shown) [Example 93], for which the IC50 is < 0.1 µM.

As for `N#Cc1ccc2ncn(-c3ncc4nc(NCCN5CCCCC5)n(C5CCOCC5)c4n3)c2c1` [Example 94], the IC50 is < 0.1 µM.

As for `N#Cc1ccc2ncn(-c3ncc4nc(NCCN5CCOCC5)n(C5CCOCC5)c4n3)c2c1` [Example 95], the IC50 is < 0.1 µM.

With `CCNc1nc2cnc(-n3cnc4ccc(C#N)cc43)nc2n1C1CCOCC1` [Example 96, 3-(8-(ethylamino)-9-(tetrahydro-2H-pyran-4-yl)-9H-purin-2-yl)-3H-benzo[d]imidazole-5-carbonitrile], the IC50 was < 0.1 µM.

`CCNc1nc2cnc(-n3cnc4ccc(C#N)cc43)nc2n1[C@@H]1CCOc2ccccc21` [Example 97]: the IC50 is < 0.1 µM.

Turning to `N#Cc1ccc2ncn(-c3ncc4nc(NC5CCCC5)n([C@@H]5CCOc6ccccc65)c4n3)c2c1` [Example 98], the IC50 is < 0.1 µM.

In the case of `Cc1ccc([C@@H](C)n2c(C)nc3cnc(-n4cnc5ccc(C#N)cc54)nc32)o1` [Example 99], the IC50 lay within 0.1 to 1 µM.

For the molecule `Cc1nc2cnc(-n3cnc4ccc(C#N)cc43)nc2n1[C@@H]1CC[C@@H](O)c2ccccc21` [Example 100, 3-(9-((1R,4R)-4-Hydroxy-1,2,3,4-tetrahydronaphthalen-1-yl)-8-methyl-9H-purin-2-yl)-3H-benzo[d]imidazole-5-carbonitrile], the IC50 was < 0.1 µM.

Regarding `N#Cc1ccc2ncn(-c3ncc4nc(Cl)n(C5CCOCC5)c4n3)c2c1` [Example 101], the IC50 was < 0.1 µM.

Regarding `Fc1ccc2ncn(-c3ncc4nc(Cl)n([C@@H]5CCOc6c(F)cccc65)c4n3)c2c1` [Example 102, 8-chloro-2-(6-fluoro-1H-benzo[d]imidazol-1-yl)-9-((R)-8-fluorochroman-4-yl)-9H-purine], the IC50 was < 0.1 µM.

Turning to `Fc1ccc2ncn(-c3ncc4nc(-c5ccc(F)nc5)n([C@@H]5CCOc6c(F)cccc65)c4n3)c2c1` [Example 103, 2-(6-fluoro-1H-benzo[d]imidazol-1-yl)-9-((R)-8-fluorochroman-4-yl)-8-(6-fluoropyridin-3-yl)-9H-purine], the IC50 is < 0.1 µM.

For the molecule `N#Cc1ccc2ncn(-c3ncc4nc(Nc5cccnc5)n([C@@H]5CCOc6ccccc65)c4n3)c2c1` [Example 104], the IC50 is < 0.1 µM.

Turning to `N#Cc1ccc2ncn(-c3ncc4nc(Nc5ccc(S(N)(=O)=O)cc5)n(C5CCOCC5)c4n3)c2c1` [Example 105, 4-(2-(6-cyano-1H-benzo[d]imidazol-1-yl)-9-(tetrahydro-2H-pyran-4-yl)-9H-purin-8-ylamino)benzenesulfonamide], the IC50 is < 0.1 µM.

As to `N#Cc1ccc2ncn(-c3ncc4nc(Nc5cccc(C(F)(F)F)c5)n([C@@H]5CCOc6ccccc65)c4n3)c2c1` [Example 106], the IC50 is 0.1 to 1 µM.

For the molecule `N#Cc1ccc2ncn(-c3ncc4nc(Nc5cccnc5)n(C5CCOCC5)c4n3)c2c1` [Example 107], the IC50 is < 0.1 µM.

On to `COc1cccc(Nc2nc3cnc(-n4cnc5ccc(C#N)cc54)nc3n2C2CCOCC2)c1` [Example 108], for which the IC50 was < 0.1 µM.
